Source: patent publication US10800741B2 (ANCUREALL PHARMACEUTICAL (SHANGHAI) CO., LTD., priority 2017, dated 2020)

How the values were obtained:
Type in all cases: cell-based, Human
Hep3B2 (FGFR3/4+++) = assay: In vitro growth inhibition of Hep3B2 tumor cells (MTT/CCK8); settings: Homo sapiens, Hep3B; in vitro growth inhibition (or induction of apoptosis), cells cultured 3 to 5 days, MTT (CCK8); read-out: IC50 Hep3B2 (FGFR3/4+++)
Kasumi-1 (KIT N822K) = assay: In vitro growth inhibition of Kasumi-1 tumor cells (MTT/CCK8); settings: Homo sapiens, Kasumi 1; in vitro growth inhibition (or induction of apoptosis), cells cultured 3 to 5 days, MTT (CCK8); read-out: IC50 Kasumi-1 (KIT N822K)
KCL-22 (BCR-ABL) = assay: In vitro growth inhibition of KCL-22 tumor cells (MTT/CCK8); settings: Homo sapiens, KCL-22; in vitro growth inhibition (or induction of apoptosis), cells cultured 3 to 5 days, MTT (CCK8); read-out: IC50 KCL-22 (BCR-ABL)
H1581 (FGFR1 amp) = assay: In vitro growth inhibition of H1581 tumor cells (MTT/CCK8); settings: Homo sapiens, NCI-H1581; in vitro growth inhibition (or induction of apoptosis), cells cultured 3 to 5 days, MTT (CCK8); read-out: IC50 H1581 (FGFR1 amp)
Karpas 299 (NPM-ALK) = assay: In vitro growth inhibition of Karpas 299 tumor cells (MTT/CCK8); settings: Homo sapiens, KARPAS-299; in vitro growth inhibition (or induction of apoptosis), cells cultured 3 to 5 days, MTT (CCK8); read-out: IC50 Karpas 299 (NPM-ALK)
H1703 (PDGFRa amp) = assay: In vitro growth inhibition of H1703 tumor cells (MTT/CCK8); settings: Homo sapiens, NCI-H1703; in vitro growth inhibition (or induction of apoptosis), cells cultured 3 to 5 days, MTT (CCK8); read-out: IC50 H1703 (PDGFRa amp)
KATO III (FGFR2 amp) = assay: In vitro growth inhibition of KATO III tumor cells (MTT/CCK8); settings: Homo sapiens, KATO III; in vitro growth inhibition (or induction of apoptosis), cells cultured 3 to 5 days, MTT (CCK8); read-out: IC50 KATO III (FGFR2 amp)
MOLM-13 (FLT3-ITD) = assay: In vitro growth inhibition of MOLM-13 tumor cells (MTT/CCK8); settings: Homo sapiens, MOLM-13; in vitro growth inhibition (or induction of apoptosis), cells cultured 3 to 5 days, MTT (CCK8); read-out: IC50 MOLM-13 (FLT3-ITD)

Compound	IC50 (Hep3B2 (FGFR3/4+++))	IC50 (Kasumi-1 (KIT N822K))	IC50 (KCL-22 (BCR-ABL))	IC50 (H1581 (FGFR1 amp))	IC50 (Karpas 299 (NPM-ALK))	IC50 (H1703 (PDGFRa amp))	IC50 (KATO III (FGFR2 amp))	IC50 (MOLM-13 (FLT3-ITD))
CCC(=O)n1nc(C(C)(C)C)cc1NC(=O)Nc1ccc(Oc2ccnc3cc(OC)c(C(N)=O)cc23)cc1Cl [Compound 29, 4-{4-[3-(5-tert-butyl-2-propanoyl-2H-pyrazol-3-yl)-ureido]-3-chloro-phenoxy}-7-methoxyquinolin-6-carboxamide]	0.0294 µM	0.0668 µM	0.0295 µM	0.0263 µM	0.626 µM	0.018 µM	0.00148 µM	0.0115 µM
COc1cc2nccc(Oc3ccc(NC(=O)Nc4cc(C(C)(C)C)nn4C4CCCC4)c(Cl)c3)c2cc1C(N)=O [Compound 30, 4-{4-[3-(5-tert-butyl-2-cyclopentyl-2H-pyrazol-3-yl)-ureido]-3-chloro-phenoxy}-7-methoxyquinolin-6-carboxamide]	0.0261 µM	0.0237 µM	0.022 µM	0.0155 µM	0.276 µM	0.0167 µM	0.00162 µM	0.0178 µM
COc1cc2nccc(Oc3ccc(NC(=O)Nc4cc(C(C)(C)C)nn4CCN4CCOCC4)c(Cl)c3)c2cc1C(N)=O [Compound 31, 4-(4-{3-[5-tert-butyl-2-(2-morpholin-4-yl-ethyl)-2H-pyrazol-3-yl]-ureido}-3-chloro-phenoxy)-7-methoxyquinolin-6-carboxamide]	0.0329 µM	0.0404 µM	0.0512 µM	0.0234 µM	0.465 µM	0.025 µM	0.00012 µM	0.00945 µM
COc1cc2nccc(Oc3ccc(NC(=O)Nc4cc(C(C)(C)C)nn4CCO)c(Cl)c3)c2cc1C(N)=O [Compound 32, 4-(4-{3-[5-tert-butyl-2-(2-hydroxy-ethyl)-2H-pyrazol-3-yl]-ureido}-3-chloro-phenoxy)-7-methoxyquinolin-6-carboxamide]	0.0566 µM	0.133 µM	0.163 µM	0.0358 µM	0.736 µM	0.0732 µM	0.00018 µM	0.0171 µM
COc1cc2nccc(Oc3ccc(NC(=O)Nc4cc(C(C)(C)C)n[nH]4)c(C(F)(F)F)c3)c2cc1C(N)=O [Compound 33, 4-{4-[3-(5-tert-butyl-2H-pyrazol-3-yl)-ureido]-3-trifluoromethyl-phenoxy}-7-methoxyquinolin-6-carboxamide]	0.13 µM	0.0464 µM	0.0257 µM	0.0498 µM	0.632 µM	0.073 µM	0.00071 µM	0.0281 µM
COc1cc2nccc(Oc3ccc(NC(=O)Nc4cc(C(C)(C)C)n[nH]4)c(C)c3)c2cc1C(N)=O [Compound 34, 4-{4-[3-(5-tert-butyl-2H-pyrazol-3-yl)-ureido]-3-methyl-phenoxy}-7-methoxyquinolin-6-carboxamide]	0.0964 µM	0.135 µM	0.0982 µM	0.0575 µM	0.641 µM	0.0881 µM	0.00162 µM	0.0146 µM
COc1cc2nc(Cl)cc(Oc3ccc(NC(=O)Nc4cc(C(C)(C)C)nn4C)c(Cl)c3)c2cc1C(N)=O [Compound 39, 4-{4-[3-(5-tert-butyl-2-methyl-2H-pyrazol-3-yl)-ureido]-3-chloro-phenoxy}-2-chloro-7-methoxyquinolin-6-carboxamide]	> 1 µM	> 1 µM	> 2.5 µM	> 1 µM	> 1 µM	> 1 µM	> 1 µM	> 1 µM
COc1cc2nccc(Oc3ccc(NC(=O)Nc4cc(C(C)C)n[nH]4)c(Cl)c3)c2cc1C(N)=O [Compound 40, 4-{3-chloro-4-[3-(5-isopropyl-2H-pyrazol-3-yl)-ureido]-phenoxy}-7-methoxyquinolin-6-carboxamide]	0.446 µM	0.106 µM	0.112 µM	0.127 µM	0.721 µM	0.093 µM	0.00253 µM	0.0196 µM
COc1cc2nccc(Oc3ccc(NC(=O)Nc4cc(C5CC5)n[nH]4)c(Cl)c3)c2cc1C(N)=O [Compound 41, 4-{3-chloro-4-[3-(5-cyclopropyl-2H-pyrazol-3-yl)-ureido]-phenoxy}-7-methoxyquinolin-6-carboxamide]	0.514 µM	0.736 µM	0.353 µM	0.45 µM	> 1 µM	0.124 µM	0.0401 µM	0.134 µM
CC(C)Oc1cc2nccc(Oc3ccc(NC(=O)Nc4cc(C(C)(C)C)n[nH]4)c(Cl)c3)c2cc1C(N)=O [Compound 43, 4-{4-[3-(5-tert-butyl-2H-pyrazol-3-yl)-ureido]-3-chloro-phenoxy}-7-isopropoxy-quinolin-6-carboxamide]	0.0643 µM	0.149 µM	0.102 µM	0.0385 µM	0.558 µM	0.0372 µM	0.00569 µM	0.0515 µM
COCCOc1cc2nccc(Oc3ccc(NC(=O)Nc4cc(C(C)(C)C)nn4C)c(Cl)c3)c2cc1C(N)=O [Compound 44, 4-{4-[3-(5-tert-butyl-2-methyl-2H-pyrazol-3-yl)-ureido]-3-chloro-phenoxy}-7-(2-methoxy-ethoxy)-quinolin-6-carboxamide]	0.0113 µM	0.00794 µM	0.00221 µM	0.00161 µM	0.297 µM	0.00649 µM	0.00108 µM	0.00381 µM
CNC(=O)c1cc2c(Oc3ccc(NC(=O)Nc4cc(C(C)(C)C)n[nH]4)c(Cl)c3)ccnc2cc1OC [Compound 45, 4-{4-[3-(5-tert-butyl-2H-pyrazol-3-yl)-ureido]-3-chloro-phenoxy}-7-methoxyquinolin-6-carboxylic acid methylamide]	0.0396 µM	0.0342 µM	0.0218 µM	0.0165 µM	0.413 µM	0.0257 µM	0.00146 µM	0.00632 µM
CNC(=O)c1cc2c(Oc3ccc(NC(=O)Nc4cc(C(C)(C)C)nn4C)c(Cl)c3)ccnc2cc1OC [Compound 46, 4-{4-[3-(5-tert-butyl-2-methyl-2H-pyrazol-3-yl)-ureido]-3-chloro-phenoxy}-7-methoxy quinolin-6-carboxylic acid methylamide]	0.0391 µM	0.0144 µM	0.00817 µM	0.00306 µM	0.384 µM	0.0088 µM	0.00098 µM	0.00698 µM
CCn1nc(C(C)(C)C)cc1NC(=O)Nc1ccc(Oc2ccnc3cc(OC)c(C(=O)NC)cc23)cc1Cl [Compound 47]	0.0393 µM	0.0159 µM	0.00938 µM	0.00493 µM	0.467 µM	0.0147 µM	0.00073 µM	0.00742 µM
